Data reported in patent publication US20110319463A1, “PREVENTIVE OR THERAPEUTIC AGENTS FOR OPTIC NERVE DISORDERS COMPRISING 4,6-DICHLORO-1H-INDOLE-2-CARBOXYLIC ACID DERIVATIVES OR SALTS THEREOF AS ACTIVE INGREDIENTS” (Saten Pharamaceuticals Co., Ltd., priority 2009, published 2011).

Columns and labels:
Type in all cases: in vivo
[1] = tested on: cell count in the retinal ganglion cell layer; assay: NMDA-induced rat retinal disorder model, retinal section evaluation (GCL cell count) after oral administration; details: 10 nmol NMDA intravitreously, 30 mg/kg orally twice a day for 3 days, eyeballs enucleated 3 days after NMDA, non-treatment group = 100%, NMDA + base = 0%
Excerpt: A NMDA-induced rat retinal disorder model (Invest. Ophthalmol. Vis. Sci., 2003; 44:385-392) employed widely as an optic nerve disorder model was employed to evaluate the usefulness (retinal nerve cell death inhibiting effect) of the present compound.
A rat [Slc:SD, male, about 7 week-old) was allowed to inhale a gas containing 3 to 4% (v/v) vaporized isoflurane at a rate of 1 to 1.5 L air/min to accomplish a systemic introducing anesthesia, followed by a maintaining anesthesia with 2 to 3% (v/v) isoflurane. Thereafter, 5 μl of a solution of NMDA (Sigma, catalog No. M3262) dissolved at 2 mmol/L in a phosphate buffer (hereinafter referred to also as “PBS”) was given intravitreously (10 nmol as NMDA).
The rat 3 days after the intravitreous administration of the NMDA solution was treated with a 100 mg/kg sodium pentobarbital injection solution by an intraperitoneal administration to accomplish a systemic anesthesia and then the eyeballs were enucleated. The enucleated eyeballs were fixed in a 25%(w/v) glutaraldehyde: 10% (w/v) neutral buffered formalin=1:9 mixture. The fixed eyeballs were embedded with a paraffin and then sliced into retinal sections (3 μm in thickness), which were then subjected to a hematoxylin and eosin staining. Eight retinal sections were taken per eyeball at intervals of 45 μm so that the optic nerve papilla was included. Among these 8 sections, 3 sections were selected randomly, and a selected section was photographed for the retina of 700 to 900 μm in width with its center being located about 1.25 mm from the optic nerve papilla, using which the cell count in the retinal ganglion cell layer (hereinafter referred to also as “GCL cell count”) was calculated (average value). From the resultant GCL cell count, a % GCL cell count reduction inhibition of each test substance was calculated according to Equation 1 while assigning 100% to the non-treatment group and 0% to a group of 10 nmol NMDA given intravitreously+base given orally. Each group included 4 animals (7 to 8 eyeballs).
% GCL cell count reduction inhibition=(NX−NO)/(NU−NO)×100 [Equation 1] […]

[2] = Body weight evaluation in NMDA-induced rat retinal disorder model after oral administration; details: 10 nmol NMDA intravitreously, 30 mg/kg orally twice a day for 3 days; for Weight gain (average): from day of NMDA administration to eyeball enucleation, non-treatment group 14.1
Experimental: Over a period from the day of the intravitreous NMDA administration through the eyeball enucleation, each individual animal was weighed once a day. Based on the body weight of the individual animal on the day of the intravitreous NMDA administration, the difference from the body weight on the day of the eyeball enucleation was calculated and the weight gain of each individual animal was calculated (average value). Each group included 4 animals. 5 μL of an NMDA solution dissolved in PBS (10 nmol as NMDA) was administered intravitreously. A 0.5% (w/v) aqueous solution of methyl cellulose was given by a repetitive oral administration twice a day in a volume of 10 mL/kg for 3 days from the day of the intravitreous NMDA administration until 2 days later. On the day of the intravitreous NMDA administration, a 0.5% (w/v) aqueous solution of methyl cellulose was given orally two times which were about 1 hour before the intravitreous NMDA administration and 1 to 2 hours. 5 μL of an NMDA solution dissolved in PBS (10 nmol as NMDA) was administered intravitreously. Each test compound suspended in 0.5% (w/v) methyl cellulose solution was given at a dose of 30 mg/kg by a repetitive oral administration twice a day in a volume of 10 mL/kg for 3 days from the day of the intravitreous NMDA administration until 2 days later. On the day of the intravitreous NMDA administration, each test compound suspended in 0.5% (w/v) methyl cellulose solution was given orally at a dose of 30 mg/kg two times which were about 1 hour before the NMDA administration and 1 to 2 hours. As a control compound, memantine was employed. 5 μL of an NMDA solution in PBS (10 nmol as NMDA) was administered intravitreously. Memantine dissolved in 0.5% (w/v) methyl cellulose solution was given at a dose of 30 mg/kg by a repetitive oral administration twice a day in a volume of 10 mL/kg for 3 days from the day of the intravitreous NMDA administration until 2 days later. On the day of the intravitreous NMDA administration, memantine dissolved in 0.5% (w/v) methyl cellulose solution was given orally at a dose of 30 mg/kg two times which were about 1 hour before the NMDA administration and 1 to 2 hours.

[3] = tested on: neurofilament light chain (NFL) expression level in the retinal tissue; assay: NMDA-induced rat retinal disorder model, quantitative PCR evaluation of NFL expression after intravitreous administration; details: 10 nmol NMDA mixed with 15 nmol/eye compound intravitreously, retina isolated 1 day after, NFL corrected by GAPDH, non-treatment group = 100%, NMDA group = 0%
Experimental: In the NMDA-induced rat retinal disorder model, the efficacy of the test compounds were evaluated using as an index the expression level in the retinal tissue of the neurofilament light chain (hereinafter referred to also as “NFL”) which is one of major constituents of the optic nerve axon and is considered to be important in maintaining the morphology of the optic nerve axon. The rat 1 day after the intravitreous administration of NMDA was treated with a 100 mg/kg sodium pentobarbital injection solution by an intraperitoneal administration to accomplish a systemic anesthesia and then the eyeballs were enucleated, and the retina was isolated. […] RR037B). In accordance with the instruction attached to QuantiTect Multiplex PCR Kit (1000) (QIAGEN, catalog No. 204545), QuantiTect Multiplex PCR Master Mix, the synthesized cDNA, the primers/probe for NFL (Sigma, “Ordermade”) and the primers/probe for glycerylaldehyde 3-phosphate dehydrogenase (hereinafter referred to also as “GAPDH”) (Applied Biosystems, Catalog No. 4352338E) were mixed, and a quantitative PCR machine (Applied Biosystems, Catalog No. 7500-03) was employed to conduct a PCR reaction, whereby measuring the expression levels of NFL and GAPDH. From the NFL and GAPDH expression levels thus obtained, a relative NFL expression level was calculated by correcting the NFL expression level based on the housekeeping gene GAPDH expression level in accordance with Equation 2. […] Each group included 1 animal (2 eyeballs). % Relative NFL expression level=(NFL expression level/GAPDH expression level) [Equation 2] % NFL recovery=(EX−EO)/(EP−EO)×100 [Equation 3] wherein EP is a relative NFL expression level in the non-treatment group, EO is a relative NFL expression level in the group of 10 nmol intravitreous NMDA administration and EX is a relative NFL expression level in the group of intravitreous administration of 10 nmol NMDA mixed with each compound. 5 μL of an NMDA solution dissolved in a 30% (v/v) DMSO-containing purified water (10 nmol as NMDA) was administered intravitreously. […]

SMILES	% Inhibition of GLC cell count reduction [1]	Weight gain compared with the non-treatment group (in words) [2]	Weight gain (average) [2]	% NFL Recovery (%, average) [3]
CC12CC3CC(C)(C1)CC(N)(C3)C2 [memantine, reference compound]	20.7%	inhibited the weight gain	−3.6	33.6%
O=C(/C=C/c1c(C(=O)O)[nH]c2cc(Cl)cc(Cl)c12)Nc1ccccc1 [Compound A′, Sodium (E)-4,6-dichloro-3-(3-oxo-3-(phenylamino)-1-propenyl)-1H-indole-2-carboxylate]	17.0%	weight gain almost equivalent to that in the non-treatment group	12.6	86.6%
O=C(O)c1[nH]c2cc(Cl)cc(Cl)c2c1/C=C1\CCN(c2ccccc2)C1=O [Compound B′, sodium (E)-4,6-dichloro-3-((2-oxo-1-phenyl-3-pyrrolidinylidene)methyl)-1H-indole-2-carboxylate]	14.8%	weight gain almost equivalent to that in the non-treatment group	14.0	80.7%
